Like-named read-outs stand apart in the source and are kept apart here.
How the values were obtained:
[1] = test system: MIA-PaCa-2 pancreatic cancer cell line (KRAS G12C); experiment: Cell proliferation assay (CellTiter 96 Aqueous One); assay type: cell-based; conditions: Homo sapiens; for inhibition at 10 µM: MIA PaCa-2, read-out: % inh cell proliferation (10 μM) in MIA PaCa-2
Outline: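 Percent inhibition of proliferation is derived from MTS absorbance data. Cells seeded at 2000–5000 per well were grown overnight before treatment. Compounds, at 10 μM final or in dilution series, stayed on cells for 2–4 days in medium containing 10% FBS and 0.3% DMSO.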

Rho-A = Rho-A (Homo sapiens, UniProt P61586); experiment: Ras GTP binding domain inhibition assay (labeled-GTP competition, cell-free); parameters: made in house
Outline: (§1)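 Immobilized His-tagged protein (Ni plate, 10-30 μg/mL, overnight 4° C); compound 20 μM or dilution series, 1% DMSO, 3 h RT, ±Sos 556-1049 last hour; Cy3/Cy5-GTP 100 nM, 45 min RT; 3× wash; bound fluorescence read.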

Rac-1 = Rac-1 (Homo sapiens, UniProt P63000); experiment: as above; parameters: made in house
Outline: as §1

KRas wild type = KRas wild type (Homo sapiens, UniProt P01116); experiment: as above; parameters: made in house
Outline: as §1

KRas G12D mutant = molecular target: T1, KRas G12D mutant (Homo sapiens, UniProt P01116, G12D); experiment: as above
T1 construct: made in house
Outline: as §1

KRas Q61H mutant = molecular target: T2, KRas Q61H mutant (Homo sapiens, UniProt P01116, Q61H); experiment: as above; conditions: at 20 μM
T2 construct: made in house
Outline: as §1

KRas G12C mutant = molecular target: T3, KRas G12C mutant (Homo sapiens, UniProt P01116, G12C); experiment: as above
T3 construct: made in house
Outline: as §1

[2] = with SOS, read-out: Rho-A + SOS: % inh.
[3] = without SOS, read-out: Rho-A: % inh.
[4] = with SOS, read-out: Rac-1 + SOS: % inh.
[5] = without SOS, read-out: Rac-1: % inh.
[6] = with SOS, read-out: KRas wild type + SOS: % inh.
[7] = without SOS, read-out: KRas wild type: % inh.
[8] = with SOS, read-out: KRas G12D mutant + SOS: % inh.
[9] = without SOS, read-out: KRas G12D mutant: % inh.
[10] = with SOS, read-out: KRas Q61H mutant + SOS: % inh.
[11] = without SOS, read-out: KRas Q61H mutant: % inh.
[12] = with SOS, read-out: KRas G12C mutant + SOS: % inh.
[13] = without SOS, read-out: KRas G12C mutant: % inh.
[14] = MIA PaCa-2, MIA-PaCa-2, 2-4 days, 10% FBS

Row | IC50 ([1]; MIA PaCa-2, MIA PaCa-2) [µM] | inhibition at 20 µM (Rho-A; [2]) [%] | inhibition at 20 µM (Rho-A; [3]) [%] | inhibition at 20 µM (Rac-1; [4]) [%] | inhibition at 20 µM (Rac-1; [5]) [%] | inhibition at 20 µM (KRas wild type; [6]) [%] | inhibition at 20 µM (KRas wild type; [7]) [%] | inhibition at 20 µM (KRas G12D mutant; [8]) [%] | inhibition at 20 µM (KRas G12D mutant; [9]) [%] | inhibition at 20 µM (KRas Q61H mutant; [10]) [%] | inhibition at 20 µM (KRas Q61H mutant; [11]) [%] | inhibition at 20 µM (KRas G12C mutant; [12]) [%] | inhibition at 20 µM (KRas G12C mutant; [13]) [%] | IC50 [1, 14] [µM] | SMILES | inhibition at 10 µM [1] [%]
1 | 5 to 10 | 76 to 100 | 51 to 75 | 76 to 100 | 76 to 100 | 51 to 75 | 51 to 75 | 26 to 50 | 0 | 26 to 50 | 51 to 75 | 51 to 75 | 51 to 75 |  | COCC1COCCN1c1nc(-c2nccn2C)nc2sc(-c3ccn(C(C)C)n3)c(C)c12 (racemic) [Compound 41, rac-4-(6-(1-Isopropyl-1H-pyrazol-3-yl)-5-methyl-2-(1-methyl-1H-imidazol-2-yl)thieno[2,3-d]pyrimidin-4-yl)-3-(methoxymethyl)morpholine] | 51 to 75
2 | 1 to 4.99 | 76 to 100 | 76 to 100 | 76 to 100 | 76 to 100 | 76 to 100 | 76 to 100 | 76 to 100 | 51 to 75 | 76 to 100 | 76 to 100 | 76 to 100 | 76 to 100 |  | CO[C@H]1CC(Nc2nc(-c3nccn3C)nc3sc(-c4ccn(C(C)C)n4)c(C)c23)C[C@@H]1OC (racemic) [Compound 44, rac-N-((3S,4S)-3,4-Dimethoxycyclopentyl)-6-(1-isopropyl-1H-pyrazol-3-yl)-5-methyl-2-(1-methyl-1H-imidazol-2-yl)thieno[2,3-d]pyrimidin-4-amine] | 76 to 100
3 | 5 to 10 | 76 to 100 | 76 to 100 | 76 to 100 | 76 to 100 | 76 to 100 | 76 to 100 | 76 to 100 | 76 to 100 | 76 to 100 | 76 to 100 | 76 to 100 | 51 to 75 |  | COCC1CN(c2nc(-c3nccn3C)nc3sc(-c4ccn(C(C)C)n4)c(C)c23)CCO1 (racemic) [Compound 45, rac-4-(6-(1-Isopropyl-1H-pyrazol-3-yl)-5-methyl-2-(1-methyl-1H-imidazol-2-yl)thieno[2,3-d]pyrimidin-4-yl)-2-(methoxymethyl)morpholine] | 26 to 50
4 | > 10 |  | 76 to 100 |  | 76 to 100 | 76 to 100 | 76 to 100 | 76 to 100 | 26 to 50 | 76 to 100 | 51 to 75 | 76 to 100 | 76 to 100 |  | Cc1c(-c2ccn(C(C)C)n2)sc2nc(-c3nccn3C)nc(NCCC3CCC(=O)N3)c12 (racemic) [Compound 56, rac-5-(2-((6-(1-Isopropyl-1H-pyrazol-3-yl)-5-methyl-2-(1-methyl-1H-imidazol-2-yl)thieno[2,3-d]pyrimidin-4-yl)amino)ethyl)pyrrolidin-2-one] | 1 to 25
5 | < 1 |  | 76 to 100 |  | 1 to 25 | 51 to 75 | 51 to 75 | 51 to 75 | 26 to 50 | 51 to 75 | 76 to 100 | 51 to 75 |  |  | Cc1c(-c2ccn(C(C)C)n2)sc2nc(-c3nccn3C)nc(N3CCC(COC(C)C)C3)c12 (racemic) [Compound 62, rac-4-(3-(Isopropoxymethyl)pyrrolidin-1-yl)-6-(1-isopropyl-1H-pyrazol-3-yl)-5-methyl-2-(1-methyl-1H-imidazol-2-yl)thieno[2,3-d]pyrimidine] | 76 to 100
6 | < 1 |  | 51 to 75 |  | 26 to 50 | 26 to 50 | 51 to 75 | 51 to 75 | 51 to 75 | 26 to 50 | 51 to 75 | 26 to 50 | 26 to 50 | < 0.4 | COC[C@@H]1CC[C@@H]1CNc1nc(-c2nccn2C)nc2sc(-c3ccn(C(C)C)n3)c(C)c12 (racemic) [Compound 63, rac-6-(1-Isopropyl-1H-pyrazol-3-y)-N-(((1S,2R)-2-(methoxymethyl)cyclobutyl)methyl)-5-methyl-2-(1-methyl-1H-imidazol-2-yl)thieno[2,3-d]pyrimidin-4-amine] | 76 to 100

The next lines start with the compound.

Row | SMILES | IC50 ([1]; MIA PaCa-2, MIA PaCa-2) [µM] | inhibition at 20 µM (Rho-A; [2]) [%] | inhibition at 20 µM (Rho-A; [3]) [%] | inhibition at 20 µM (Rac-1; [4]) [%] | inhibition at 20 µM (Rac-1; [5]) [%] | inhibition at 20 µM (KRas wild type; [6]) [%] | inhibition at 20 µM (KRas wild type; [7]) [%] | inhibition at 20 µM (KRas G12D mutant; [8]) [%] | inhibition at 20 µM (KRas G12D mutant; [9]) [%] | inhibition at 20 µM (KRas Q61H mutant; [10]) [%] | inhibition at 20 µM (KRas Q61H mutant; [11]) [%] | inhibition at 20 µM (KRas G12C mutant; [12]) [%] | inhibition at 20 µM (KRas G12C mutant; [13]) [%] | IC50 [1, 14] [µM] | inhibition at 10 µM [1] [%]
7 | CO[C@@H]1CC[C@@H](Nc2nc(-c3nccn3C)nc3sc(-c4ccn(C(C)C)n4)c(C)c23)C1 (racemic) [Compound 33, rac-6-(1-Isopropyl-1H-pyrazol-3-yl)-N-((1R,3R)-3-methoxycyclopentyl)-5-methyl-2-(1-methyl-1H-imidazol-2-yl)thieno[2,3-d]pyrimidin-4-amine] | 1 to 4.99 | 76 to 100 | 76 to 100 | 51 to 75 | 51 to 75 | 76 to 100 | 76 to 100 | 76 to 100 | 51 to 75 | 76 to 100 | 76 to 100 | 76 to 100 | 76 to 100 |  | 76 to 100
8 | COC1CCN(c2nc(-c3nccn3C)nc3sc(-c4ccn(C(C)C)n4)c(C)c23)C1 (racemic) [Compound 34, rac-6-(1-Isopropyl-1H-pyrazol-3-yl)-4-(3-methoxypyrrolidin-1-yl)-5-methyl-2-(1-methyl-1H-imidazol-2-yl)thieno[2,3-d]pyrimidine] | 1 to 4.99 | 76 to 100 | 76 to 100 | 76 to 100 | 76 to 100 | 76 to 100 | 76 to 100 | 76 to 100 | 76 to 100 | 76 to 100 | 76 to 100 | 76 to 100 | 76 to 100 |  | 76 to 100
9 | Cc1c(-c2ccn(C(C)C)n2)sc2nc(-c3nccn3C)nc(NC3CCOC3)c12 (racemic) [Compound 37, rac-6-(1-Isopropyl-1H-pyrazol-3-yl)-5-methyl-2-(1-methyl-1H-imidazol-2-yl)-N-(tetrahydrofuran-3-yl)thieno[2,3-d]pyrimidin-4-amine] | 5 to 10 | 76 to 100 | 76 to 100 | 76 to 100 | 76 to 100 | 76 to 100 | 76 to 100 | 76 to 100 | 76 to 100 | 76 to 100 | 76 to 100 | 76 to 100 | 76 to 100 |  | 51 to 75
10 | COCC1CCN(c2nc(-c3nccn3C)nc3sc(-c4ccn(C(C)C)n4)c(C)c23)C1 (racemic) [Compound 38, rac-6-(1-Isopropyl-1H-pyrazol-3-yl)-4-(3-(methoxymethyl)pyrrolidin-1-yl)-5-methyl-2-(1-methyl-1H-imidazol-2-yl)thieno[2,3-d]pyrimidine] | 1 to 4.99 | 76 to 100 | 76 to 100 | 76 to 100 | 76 to 100 | 76 to 100 | 76 to 100 | 76 to 100 | 51 to 75 | 76 to 100 | 76 to 100 | 76 to 100 | 51 to 75 | 0.75 to 1 | 76 to 100
11 | COC1CCCN(c2nc(-c3nccn3C)nc3sc(-c4ccn(C(C)C)n4)c(C)c23)C1 (racemic) [Compound 40, rac-6-(1-Isopropyl-1H-pyrazol-3-yl)-4-(3-methoxypiperidin-1-yl)-5-methyl-2-(1-methyl-1H-imidazol-2-yl)thieno[2,3-d]pyrimidine] | < 1 | 76 to 100 | 76 to 100 | 51 to 75 | 51 to 75 | 76 to 100 | 76 to 100 | 26 to 50 | 26 to 50 | 76 to 100 | 51 to 75 | 76 to 100 | 51 to 75 |  | 76 to 100

— US20230227466A1, “SUBSTITUTED THIENOPYRIMIDINES THAT INTERACT WITH THE RAS SUPERFAMILY FOR THE TREATMENT OF CANCERS, INFLAMMATORY DISEASES, RASOPATHIES, AND FIBROTIC DISEASE” (SHY Therapeutics, LLC, priority 2020, published 2023)
